# Results as given in paper PMC9944328 (Nature Communications, 2023).
# Where two headings read alike, the source gives them in different places.
# System: SSTR2 mutants
# Experiment: SSTRs Gi-mediated cAMP inhibition, GloSensor, HEK293, 5 μM forskolin, 15 min room temperature (SSTR2 mutants)
# Assay type: cell-based, human
# Protocol: The levels of the intracellular 3′, 5′-cyclic AMP (cAMP) were measured by the GloSensor cAMP assay (Promega) as described in the previous studies[28],[41] which has been widely used. The human full-length SSTRs and mutants were cloned into the pcDNA3.1+ vector with a HA signal sequence followed by a Flag tag at the N-terminus. HEK293 cells (ATCC, CRL-1573) were seeded into 6-well microplates at a density of 1.0 × 10^6 cells/well and cultured for 24 h at 37 °C with 5% CO2. Cells were then co-transfected with SSTR wild-type or mutants and GloSensor plasmids. After 24 h of transfection, the cells were dissociated with TrypLE™ Express Enzyme (1X) (Thermo Fisher Scientific) and collected by centrifugation at 500 × g for 5 min. Then the collected cells were suspended in Hank’s balanced salt solution [HBSS (Thermo Fisher Scientific)] supplemented with […] (YEASEN), and then the suspension cells were seeded into 96-well plates with 90 μl/well. After incubating at room temperature for 40 min, 5 μM forskolin and ligands diluted in HBSS were added to each well and the plates were incubated at room temperature for 15 min. […] were measured using the Synergy H1 microplate reader (BioTek) and the data presented are means of at least three independent experiments.
# [1] = cAMP inhibition best-fit, F127A-1
# [2] = cAMP inhibition best-fit, F127A-2
# [3] = cAMP inhibition best-fit, F127A-3
# [4] = cAMP inhibition best-fit, I130A-1
# [5] = cAMP inhibition best-fit, I130A-2
# [6] = cAMP inhibition best-fit, I130A-3
# [7] = cAMP inhibition best-fit, Q102A-1
# [8] = cAMP inhibition best-fit, Q102A-2
# [9] = cAMP inhibition best-fit, Q102A-3
# [10] = cAMP inhibition best-fit, V103A-1
# [11] = cAMP inhibition best-fit, V103A-2
# [12] = cAMP inhibition best-fit, V103A-3
smiles,measurement,setting,value
N#Cc1cccc(-c2ccc3ncc(-c4cc(F)cc(F)c4)c(N4CCC(N)CC4)c3c2)c1O [paltusotine],"LogEC50 (best-fit value), cAMP inhibition",Y302A-1 (run 1),-7.774
same,"Span (best-fit value), cAMP inhibition",Y302A-1 (run 1),45.84
same,"Top (best-fit value), cAMP inhibition",Y302A-1 (run 1),51.54
same,"Bottom (best-fit value), cAMP inhibition",Y302A-2 (run 2),6.053
same,"LogEC50 (best-fit value), cAMP inhibition",Y302A-2 (run 2),-7.903
same,"Span (best-fit value), cAMP inhibition",Y302A-2 (run 2),53.55
same,"Top (best-fit value), cAMP inhibition",Y302A-2 (run 2),59.6
same,"Bottom (best-fit value), cAMP inhibition",Y302A-3 (run 3),6.125
same,"LogEC50 (best-fit value), cAMP inhibition",Y302A-3 (run 3),-8.216
same,"Span (best-fit value), cAMP inhibition",Y302A-3 (run 3),50.13
same,"Top (best-fit value), cAMP inhibition",Y302A-3 (run 3),56.25
same,Bottom,[1],3.363
same,EC50,[1],0.994 nM
same,LogEC50,[1],-9.003
same,Span,[1],99.71
same,Top,[1],103.1
same,Bottom,[2],-15.5
same,EC50,[2],0.816 nM
same,LogEC50,[2],-9.089
same,Span,[2],125.3
same,Top,[2],109.8
same,Bottom,[3],3.745
same,EC50,[3],0.665 nM
same,LogEC50,[3],-9.177
same,Span,[3],105.4
same,Top,[3],109.1
same,Bottom,[4],11.53
same,EC50,[4],17.8 nM
same,LogEC50,[4],-7.749
same,Span,[4],105
same,Top,[4],116.5
same,Bottom,[5],16.26
same,EC50,[5],15.1 nM
same,LogEC50,[5],-7.822
same,Span,[5],108.4
same,Top,[5],124.7
same,Bottom,[6],6.76
same,EC50,[6],23.9 nM
same,LogEC50,[6],-7.621
same,Span,[6],101.4
same,Top,[6],108.2
same,EC50,[7],43.6 nM
same,LogEC50,[7],-7.36
same,Span,[7],102.2
same,Top,[7],104
same,EC50,[8],28.2 nM
same,LogEC50,[8],-7.55
same,Span,[8],100.8
same,Top,[8],101.3
same,EC50,[9],21.3 nM
same,LogEC50,[9],-7.671
same,Span,[9],85.31
same,Top,[9],86.48
same,Bottom,[10],9.955
same,EC50,[10],90.2 nM
same,LogEC50,[10],-7.045
same,Span,[10],84.48
same,Top,[10],94.43
same,Bottom,[11],-12.27
same,EC50,[11],7.12 nM
same,LogEC50,[11],-8.147
same,Span,[11],105.2
same,Top,[11],92.96
same,Bottom,[12],15.94
same,EC50,[12],1.5 nM
same,LogEC50,[12],-8.823
same,Span,[12],58.67
same,Top,[12],74.61
same,EC50,"read-out: EC50 (best-fit value), cAMP inhibition, D295A-1 (run 1)",16 nM
same,EC50,"read-out: EC50 (best-fit value), cAMP inhibition, D295A-2 (run 2)",15.9 nM
same,EC50,"read-out: EC50 (best-fit value), cAMP inhibition, D295A-3 (run 3)",18.1 nM
same,EC50,"read-out: EC50 (best-fit value), cAMP inhibition, F272A-1 (run 1)",17.7 nM
same,EC50,"read-out: EC50 (best-fit value), cAMP inhibition, F272A-2 (run 2)",26.7 nM
same,EC50,"read-out: EC50 (best-fit value), cAMP inhibition, F272A-3 (run 3)",145 nM
same,EC50,"read-out: EC50 (best-fit value), cAMP inhibition, F294A-1 (run 1)",3.57 nM
same,EC50,"read-out: EC50 (best-fit value), cAMP inhibition, F294A-2 (run 2)",4.21 nM
same,EC50,"read-out: EC50 (best-fit value), cAMP inhibition, F294A-3 (run 3)",0.15 nM
same,EC50,"read-out: EC50 (best-fit value), cAMP inhibition, K291A-1 (run 1)",4.34 nM
same,EC50,"read-out: EC50 (best-fit value), cAMP inhibition, K291A-2 (run 2)",1.48 nM
same,EC50,"read-out: EC50 (best-fit value), cAMP inhibition, K291A-3 (run 3)",6.95 nM
same,EC50,"read-out: EC50 (best-fit value), cAMP inhibition, N276A-1 (run 1)",0.993 nM
same,EC50,"read-out: EC50 (best-fit value), cAMP inhibition, N276A-2 (run 2)",2.19 nM
same,EC50,"read-out: EC50 (best-fit value), cAMP inhibition, N276A-3 (run 3)",1.77 nM
same,EC50,"read-out: EC50 (best-fit value), cAMP inhibition, Y302A-1 (run 1)",16.8 nM
same,EC50,"read-out: EC50 (best-fit value), cAMP inhibition, Y302A-2 (run 2)",12.5 nM
same,EC50,"read-out: EC50 (best-fit value), cAMP inhibition, Y302A-3 (run 3)",6.08 nM
same,EC50,"read-out: EC50 (best-fit value), F208A-1 (run 1)",14.9 nM
same,EC50,"read-out: EC50 (best-fit value), F208A-2 (run 2)",98.5 nM
same,EC50,"read-out: EC50 (best-fit value), F208A-3 (run 3)",79.3 nM
same,EC50,"read-out: EC50 (best-fit value), F265A-1 (run 1)",11.3 nM
same,EC50,"read-out: EC50 (best-fit value), F265A-2 (run 2)",14.7 nM
same,EC50,"read-out: EC50 (best-fit value), F265A-3 (run 3)",9.82 nM
same,EC50,"read-out: EC50 (best-fit value), P220A-1 (run 1)",3.5 nM
same,EC50,"read-out: EC50 (best-fit value), P220A-2 (run 2)",3.09 nM
same,EC50,"read-out: EC50 (best-fit value), P220A-3 (run 3)",3.08 nM
same,EC50,"read-out: EC50 (best-fit value), W269A-1 (run 1)",0.601 nM
same,EC50,"read-out: EC50 (best-fit value), W269A-2 (run 2)",0.503 nM
same,EC50,"read-out: EC50 (best-fit value), W269A-3 (run 3)",0.604 nM
same,EC50,"read-out: EC50 (best-fit value), Y205A-1 (run 1)",0.344 nM
same,EC50,"read-out: EC50 (best-fit value), Y205A-2 (run 2)",0.915 nM
same,EC50,"read-out: EC50 (best-fit value), Y205A-3 (run 3)",0.18 nM
